# Experimental data: patent US8729128B2, “Lipoxin A4 protection for cornea endothelial cells” (Board of Supervisors of Louisiana State University And …, priority 2007, dated 2014)
# What was measured:
# Format in all cases: cell-based
# [1] = tested on: Rabbit corneal endothelial cells (RCEC); experiment: In vitro wound closure in confluent rabbit corneal endothelial cells; settings: 10 nM and 100 nM, 24 hours
# Description: (§1) Rabbit corneal endothelial cells (RCEC) and human corneal endothelial cells along with the Decemet's membrane were isolated from normal eyes (National Disease Research Interchange (NDRI), Philadelphia, Pa.), and the cells were suspended in Dulbecco's Modified Eagle Medium/Nutrient Mixture F-12 (DMEM/F12; GIBCO®, Grand Island, N.Y.) supplemented with 15% fetal bovine serum (FBS; GIBCO®), and seeded in 12-well plates. Cell phenotype was identified by using the endothelial cell marker anti-ZO-1 antibody (anti-zonula occludins-1 antibody) (Zymed Laboratories, Inc., San Francisco, Calif.). The localization of the lipoxin A4 (LXA4) receptor was detected with the polyclonal antibody FPRL1 (formyl peptide receptor-like 1; sc-13193, Santa Cruz Biotechnology, Inc., Santa Cruz, Calif.) (FIG. 1). […] The same was found with human endothelial cells. (Data not shown) This is the first time such receptor has been reported in cornea endothelial cells.
# To measure in vitro wound closure, 12-day cultures of completely confluent RCEC in 12-well plates were wounded by linear scraping with a sterile plastic tip in the center of the well. Cells were incubated for 24 hours in DMEM/F12 with or without 15-epimer lipoxin A4 at 10 nM and 100 nM concentrations. The width of wound was calculated using Metavue Image software. […]
# [2] = tested on: Rabbit corneal endothelial cells (RCEC); experiment: Proliferation of rabbit corneal endothelial cells (Ki-67 antibody staining); settings: rabbit CEC, 10 nM to 200 nM, DMEM/F12 0.5% FBS, 24 hours
# Description: as §1
# Proliferation of cornea endothelial cells was evaluated with anti-Ki-67 antibody (Zymed Laboratories, Inc., San Francisco, Calif.). Rabbit CEC cells were grown at 60-70% confluence, starved for 24 hours, and then treated with 15-epimer-lipoxin A4 (Calbiochem, Madison, Wis.) at different concentrations from 10 nM to 200 nM in DMEM/F12 containing 0.5% FBS for 24 hours. […] In addition, a similar experiment was conducted using lipoxin A4.
# [3] = tested on: human corneal endothelial cells; experiment: Cell migration in a wound of human corneal endothelial cells; settings: human CEC, 100 nM, at 48 hours, p<0.05
# Protocol: (§2) Human eyeballs were obtained from NDRI (National Disease Research Interchange, Philadelphia, Pa.) and shipped to the laboratory on ice. The corneas were excised along the sclerocorneal rim, and the endothelia together with the Decemet's membrane were removed with tooth-free fine forceps under a dissection microscope. Pieces of the endothelia were seeded in DMEM/F12 (GIBCO®, Grand Island, N.Y.) supplemented with 15% FBS in 12-well plates. Cell phenotypes were identified and confirmed by using the endothelial cell marker anti-ZO-1 antibody (Zymed Laboratories, Inc., San Francisco, Calif.). […] This method of cell culture was used to establish cell cultures from several human eyeballs.
# A secondary passage of human corneal endothelial cells derived from a donor was obtained as described above in Example 4. The cells were grown to 70% confluence in 24-well plate, and then starved for 24 hours. […] Wound healing was determined by phase contrast images collected by a camera attached to the microscope, and the result shown in FIG. 6B. The width of wound was calculated using Metavue Image software. The degree of cell migration was quantified by measuring the width of the wounded area at 24 and 48 hours, and the data shown in FIG. 6A. […]
# [4] = tested on: human corneal endothelial cells; experiment: Proliferation of cultured human corneal endothelial cells (Ki-67 immunofluorescence); settings: human CEC, second passage, 100 nM, 24 hours
# Protocol: as §2
# A secondary passage of human corneal endothelial cells derived from a donor was obtained as described above in Example 4. The cells were grown to 70% confluence in 24-well plate, and then starved for 24 hours. The starved cells were then incubated in DMEM/F12 containing 0.5% FBS with or without 15-epimer LxA4 (100 nM; from Calbiochem, Madison, Wis.) for 24 hours. […] Based on the rabbit studies above, it is believed that lipoxin A4 and its other analogs would show similar results as the 15-epimer lipoxin A4 used in these experiments.
structure (smiles),measurement,setting,value
CCCCC[C@H](O)/C=C/C=C\C=C\C=C\[C@@H](O)[C@@H](O)CCCC(=O)O [lipoxin A4],wound healing (width of wound),[1],"the same, both qualitatively and quantitatively"
same,number of cells with Ki-67 staining (proliferation),[2],"the same, both qualitatively and quantitatively"
CCCCC[C@@H](O)/C=C/C=C\C=C\C=C\[C@@H](O)[C@@H](O)CCCC(=O)O [15-epimer lipoxin A4],cell migration (width of the wounded area),[3],significant increase in cell migration
same,cell proliferation (percentage of Ki-67-positive cells versus total cells),[4],significant increase
same,wound healing (width of wound),[1],promoted wound healing
same,number of cells with Ki-67 staining (proliferation),[2],increases with the concentration
